Drawing on patent US9593149B2, “Amylin and calcitonin receptor agonist” (Novo Nordisk A/S, priority 2014, dated 2017), this text covers Solubility, solubility and IC50 for four compounds.

SMILES strings stand for the structures. ≈ marks a conversion by molar mass, not a printed value. Numbered stars: 1 amine (or outer) side, 2 acyl side, 3 side chain; on linkers, the order of the positions; unused ones are H or OH. Peptide text beside a SMILES is read from it. * marks the point of attachment. C20 diacid = O=C(O)CCCCCCCCCCCCCCCCCCC(=O)*; γGlu = O=C(O)[C@H](CCC(=O)[*:2])N[*:1]

The nature of series [1]: Assay (IV) determination of solubility. Format: physicochemical. The procedure: Assay (IV)—Determination of Solubility
The mimylin peptide was dissolved in water at ˜500 nmol/ml and mixed 1:1 with a series of buffers (100 mM glycylglycine pH 3.0, 100 mM glycylglycine pH 4.0, 100 mM glycylglycine pH 5.0, 100 mM bistrispropane pH 6.0, 100 mM bistrispropane pH 6.5, 100 mM bistrispropane pH 7.0, 100 mM bistrispropane pH 7.5, 100 mM bistrispropane pH 8.0).

A further series has as its target T1, rat calcitonin receptor (Rattus norvegicus, UniProt P32214).
T1 construct: expressed in transfected cells; host or cells: BHK tk'ts 13 (transient, FuGENE 6)
T1 sequence (P32214 25-479 isoform P32214-2 limits assumed): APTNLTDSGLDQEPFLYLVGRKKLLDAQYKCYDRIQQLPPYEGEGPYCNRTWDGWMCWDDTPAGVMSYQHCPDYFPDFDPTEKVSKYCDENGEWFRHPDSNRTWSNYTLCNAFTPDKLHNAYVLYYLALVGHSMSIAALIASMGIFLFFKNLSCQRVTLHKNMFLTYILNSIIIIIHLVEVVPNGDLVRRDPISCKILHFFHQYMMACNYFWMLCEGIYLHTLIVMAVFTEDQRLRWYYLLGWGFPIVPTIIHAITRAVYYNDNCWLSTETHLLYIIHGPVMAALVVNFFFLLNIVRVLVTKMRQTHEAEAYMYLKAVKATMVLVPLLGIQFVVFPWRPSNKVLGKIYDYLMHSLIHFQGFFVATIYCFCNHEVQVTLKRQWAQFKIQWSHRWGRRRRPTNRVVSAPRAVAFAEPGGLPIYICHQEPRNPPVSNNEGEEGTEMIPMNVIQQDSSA
As to the kind of experiment: Assay (VIII) binding to the rat calcitonin receptor. Conditions: membranes; read-out: rCT-R binding IC50. In outline: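 Affinity given as IC50 from a one-site competition fit of bound radioactivity, counted by scintillation after cold HBSS washes and NaOH/SDS lysis. Membranes came from BHK tk'ts 13 cells transiently expressing the rat receptor; other conditions followed the human calcitonin receptor protocol.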

On to `CC(C)C[C@H](NC(=O)CNC(=O)[C@H](CO)NC(=O)[C@H](C)NC(=O)CC[C@H](NC(=O)CCCCCCCCCCCCCCCCCCC(=O)O)C(=O)O)C(=O)N[C@@H](CO)C(=O)N[C@H](C(=O)N[C@@H](C)C(=O)N[C@@H](C)C(=O)N[C@@H](CC(C)C)C(=O)NCC(=O)N[C@@H](CCCNC(=N)N)C(=O)N[C@@H](CC(C)C)C(=O)N[C@@H](CO)C(=O)N[C@@H](CCC(N)=O)C(=O)N[C@@H](CCC(=O)O)C(=O)N[C@@H](CC(C)C)C(=O)N[C@@H](Cc1cnc[nH]1)C(=O)N[C@@H](CCC(=O)O)C(=O)N[C@@H](CC(C)C)C(=O)N[C@@H](CCC(N)=O)C(=O)N[C@H](C(=O)N[C@@H](Cc1ccc(O)cc1)C(=O)N1CCC[C@H]1C(=O)N[C@@H](CCCNC(=N)N)C(=O)N[C@H](C(=O)N[C@@H](CCC(=O)O)C(=O)N[C@H](C(=O)NCC(=O)N[C@@H](CO)C(=O)N[C@@H](CCC(N)=O)C(=O)N[C@H](C(=O)N[C@@H](Cc1ccc(O)cc1)C(N)=O)[C@@H](C)O)[C@@H](C)O)[C@@H](C)O)[C@@H](C)O)[C@@H](C)O` [compound 109, [N-terminal(C20 diacid-gGlu), des1, 4G, 15Q, 21Q, 23Y, 30S, 31Q, 32T, 33Y]mimylin] ({C20 diacid-γGlu}-ASGLSTAALGRLSQELHELQTYPRTETGSQTY-NH2), for which the Solubility entry in series [1] (pH 3.0), in series [1] (pH 4.0), in series [1] (pH 6.0), in series [1] (pH 6.5), in series [1] (pH 7.0) and in series [1] (pH 7.5) was “≧200 μM” throughout. Besides, the Solubility result in series [1] (pH 8.0) is reported as “≧200 μM”. In addition, in series [1] (pH 5.0), the solubility at 18 h is listed as 7 µM (≈ 27.4 µg/mL). In addition, the IC50 at rat calcitonin receptor came out at 0.012 nM.

With `CC(C)C[C@H](NC(=O)CNC(=O)[C@H](CO)NC(=O)[C@H](C)NC(=O)CC[C@H](NC(=O)CCCCCCCCCCCCCCCCCCC(=O)O)C(=O)O)C(=O)N[C@@H](CO)C(=O)N[C@H](C(=O)N[C@@H](C)C(=O)N[C@H](C(=O)N[C@@H](CC(C)C)C(=O)NCC(=O)N[C@@H](CCCNC(=N)N)C(=O)N[C@@H](CC(C)C)C(=O)N[C@@H](CO)C(=O)N[C@@H](CCC(N)=O)C(=O)N[C@@H](CCC(=O)O)C(=O)N[C@@H](CC(C)C)C(=O)N[C@@H](Cc1cnc[nH]1)C(=O)N[C@@H](CCC(=O)O)C(=O)N[C@@H](CC(C)C)C(=O)N[C@@H](CCC(N)=O)C(=O)N[C@H](C(=O)N[C@@H](Cc1ccc(O)cc1)C(=O)N1CCC[C@H]1C(=O)N[C@@H](CCCNC(=N)N)C(=O)N[C@H](C(=O)N[C@@H](CCC(=O)O)C(=O)N[C@H](C(=O)NCC(=O)N[C@@H](CO)C(=O)N[C@@H](CCC(N)=O)C(=O)N[C@H](C(=O)N[C@@H](Cc1ccc(O)cc1)C(N)=O)[C@@H](C)O)[C@@H](C)O)[C@@H](C)O)[C@@H](C)O)C(C)C)[C@@H](C)O` [compound 119, [N-terminal(C20 diacid-gGlu), des1, 4G, 9V, 15Q, 21Q, 23Y, 30S, 31Q, 32T, 33Y]mimylin] ({C20 diacid-γGlu}-ASGLSTAVLGRLSQELHELQTYPRTETGSQTY-NH2), the Solubility result in series [1] (pH 3.0), in series [1] (pH 6.0), in series [1] (pH 6.5), in series [1] (pH 7.0), in series [1] (pH 7.5) and in series [1] (pH 8.0) was “≧200 μM” each time. The solubility at 18 h turned out to be 170 µM (≈ 671 µg/mL) in series [1] (pH 4.0) and 56 µM (≈ 221 µg/mL) in series [1] (pH 5.0). The IC50 at rat calcitonin receptor stood at 0.016 nM.

As to `CC(C)C[C@H](NC(=O)CNC(=O)[C@H](CO)NC(=O)[C@H](C)NC(=O)COCCOCCNC(=O)COCCOCCNC(=O)CC[C@H](NC(=O)CCCCCCCCCCCCCCCCCCC(=O)O)C(=O)O)C(=O)N[C@@H](CO)C(=O)N[C@H](C(=O)N[C@@H](C)C(=O)N[C@H](C(=O)N[C@@H](CC(C)C)C(=O)NCC(=O)N[C@@H](CCCNC(=N)N)C(=O)N[C@@H](CC(C)C)C(=O)N[C@@H](CO)C(=O)N[C@@H](CCC(N)=O)C(=O)N[C@@H](CCC(=O)O)C(=O)N[C@@H](CC(C)C)C(=O)N[C@@H](Cc1cnc[nH]1)C(=O)N[C@@H](CCC(=O)O)C(=O)N[C@@H](CC(C)C)C(=O)N[C@@H](CCC(N)=O)C(=O)N[C@H](C(=O)N[C@@H](Cc1ccc(O)cc1)C(=O)N1CCC[C@H]1C(=O)N[C@@H](CCCNC(=N)N)C(=O)N[C@H](C(=O)N[C@@H](CCC(=O)O)C(=O)N[C@H](C(=O)NCC(=O)N[C@@H](CO)C(=O)NCC(=O)N[C@H](C(=O)N[C@@H](Cc1ccc(O)cc1)C(N)=O)[C@@H](C)O)[C@@H](C)O)[C@@H](C)O)[C@@H](C)O)C(C)C)[C@@H](C)O` [compound 120, [N-terminal(C20 diacid-gGlu-2xOEG), des1, 4G, 9V, 15Q, 21Q, 23Y, 30S, 31G, 32T, 33Y]mimylin], the Solubility result in series [1] (pH 3.0), in series [1] (pH 4.0), in series [1] (pH 6.0), in series [1] (pH 6.5), in series [1] (pH 7.0) and in series [1] (pH 7.5) was “≧200 μM” throughout. Further, the Solubility entry in series [1] (pH 8.0) is given as “≧200 μM”. In series [1] (pH 5.0), the solubility at 18 h is on record as 96 µM (≈ 400 µg/mL). Moreover, the IC50 at rat calcitonin receptor is 0.027 nM.

`CC(C)C[C@H](NC(=O)CNC(=O)[C@H](CO)NC(=O)[C@H](C)NC(=O)COCCOCCNC(=O)COCCOCCNC(=O)CC[C@H](NC(=O)CCCCCCCCCCCCCCCCC(=O)O)C(=O)O)C(=O)N[C@@H](CO)C(=O)N[C@H](C(=O)N[C@@H](C)C(=O)N[C@H](C(=O)N[C@@H](CC(C)C)C(=O)NCC(=O)N[C@@H](CCCNC(=N)N)C(=O)N[C@@H](CC(C)C)C(=O)N[C@@H](CO)C(=O)N[C@@H](CCC(N)=O)C(=O)N[C@@H](CCC(=O)O)C(=O)N[C@@H](CC(C)C)C(=O)N[C@@H](Cc1cnc[nH]1)C(=O)N[C@@H](CCC(=O)O)C(=O)N[C@@H](CC(C)C)C(=O)N[C@@H](CCC(N)=O)C(=O)N[C@H](C(=O)N[C@@H](Cc1ccc(O)cc1)C(=O)N1CCC[C@H]1C(=O)N[C@@H](CCCNC(=N)N)C(=O)N[C@H](C(=O)N[C@@H](CCC(=O)O)C(=O)N[C@H](C(=O)NCC(=O)N[C@@H](CO)C(=O)NCC(=O)N[C@H](C(=O)N[C@@H](Cc1ccc(O)cc1)C(N)=O)[C@@H](C)O)[C@@H](C)O)[C@@H](C)O)[C@@H](C)O)C(C)C)[C@@H](C)O` [compound 121, [N-terminal(C18 diacid-gGlu-2xOEG), des1, 4G, 9V, 15Q, 21Q, 23Y, 30S, 31G, 32T, 33Y]mimylin]: the Solubility entry in series [1] (pH 3.0), in series [1] (pH 4.0), in series [1] (pH 6.0), in series [1] (pH 6.5), in series [1] (pH 7.0) and in series [1] (pH 7.5) was “≧200 μM” each time. Also, the Solubility entry in series [1] (pH 8.0) is given as “≧200 μM”. For the same compound, in series [1] (pH 5.0), the solubility at 18 h was determined as 110 µM (≈ 455 µg/mL). For the same compound, the IC50 on rat calcitonin receptor worked out at 0.032 nM.

As usually defined, the solubility is the concentration that dissolves in the medium under given conditions. Read a low solubility as a poorly soluble substance. For orientation: IC50 means the concentration that inhibits the measured activity by half.
